Literature values as cited in patent publication US20240293300A1, “SKIN PENETRATION COSMETIC MATERIAL, AND SKIN PENETRATION COSMETIC MATERIAL PRODUCTION METHOD” (SHISEIDO COMPANY, LTD., priority 2021, published 2024).
Where a SMILES comes first, the peptide text is derived from it.

Settings: 1-octanol/water partition coefficient

| Compound | Log P |
| --- | --- |
| N[C@@H](CCC(=O)O)C(=O)O [glutamic acid] | −3.7 |
| Cc1cc(C)nc(-n2nc(C)cc2C)n1.Cl [compound a, 2-(3,5-dimethylpyrazol-1-yl)-4,6-dimethyl pyrimidine hydrochloride] | 1.36 |
| piperidine propionic acid | −2.06 |
| NCC(=O)NCC(=O)O [glycylglycine] (H-Gly-Gly-OH) | −2.3 |
